Literature values, collected in patent publication US20090170816A1, “COMBINATION COMPRISING SQUALENE, A PHOSPHOLIPID AND AN OMEGA 3 FATTY ACID FOR THE TREATMENT OF CANCER” (FARMALEIS S.L., priority 2005, published 2009).

Columns and labels:
[1] = system: chemically-induced lung tumours; conditions: compared to animals not receiving squalene
Colon cancer = conditions: Table 1, source Carcinogenesis vol. 19 no. 2 pp. 287-290, 1998

CC(C)=CCC/C(C)=C/CC/C(C)=C/CC/C=C(\C)CC/C=C(\C)CCC=C(C)C [Squalene]
incidence of tumours [1]: lower incidence of tumours
multiplicity of tumours [1]: lower multiplicity
volume of tumours [1]: smaller volume
Survival percentage (Colon cancer): 50% ^(1)
